Consider three compounds from publication PMC12174747, “Ligand Screening and Discovery Using Cocktail Soaking and Automated Microcrystal Electron Diffraction” (Chemmedchem, 2025).

One test deals with T1, thermolysin (Bacillus thermoproteolyticus, UniProt P00800).
T1 construct: gene npr
T1 sequence (P00800 233-548): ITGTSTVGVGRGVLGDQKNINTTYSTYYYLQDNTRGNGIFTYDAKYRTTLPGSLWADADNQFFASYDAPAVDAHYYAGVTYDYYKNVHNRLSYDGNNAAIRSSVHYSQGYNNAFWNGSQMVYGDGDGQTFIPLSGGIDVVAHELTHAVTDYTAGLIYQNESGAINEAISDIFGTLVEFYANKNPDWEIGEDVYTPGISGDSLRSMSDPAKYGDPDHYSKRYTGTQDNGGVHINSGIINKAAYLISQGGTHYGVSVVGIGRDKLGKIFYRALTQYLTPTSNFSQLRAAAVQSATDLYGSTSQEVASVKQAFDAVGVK
Put plainly: MicroED crystal structure (cocktail and individual soaking) and microscale thermophoresis. The format is binding.

The next test addresses T2, proteinase K (Parengyodontium album, UniProt P06873).
T2 construct: gene PROK
The description is as above. The format is binding.

Where a name gives a salt, the structure may show the parent alone. Read-outs that look alike come from different tables or passages of the source.

T2 sequence (P06873 106-384): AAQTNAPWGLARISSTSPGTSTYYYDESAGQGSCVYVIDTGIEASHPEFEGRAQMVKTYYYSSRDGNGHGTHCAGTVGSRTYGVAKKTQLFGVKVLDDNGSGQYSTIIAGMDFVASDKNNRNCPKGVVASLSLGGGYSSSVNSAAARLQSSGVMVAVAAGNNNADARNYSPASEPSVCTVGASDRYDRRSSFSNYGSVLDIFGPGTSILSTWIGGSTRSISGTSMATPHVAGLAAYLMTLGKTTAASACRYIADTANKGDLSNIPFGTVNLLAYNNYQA

Consider `CC(C)C[C@H](NP(=O)(O)O[C@@H]1O[C@@H](C)[C@H](O)[C@@H](O)[C@H]1O)C(=O)N[C@@H](Cc1c[nH]c2ccccc12)C(=O)O` [compound 1, phosphoramidon disodium salt], for which the dissociation constant Kd on thermolysin is 0.345 µM. On to “benzenesulfonyl fluoride hydrochloride [compound 4]”, for which, on proteinase K, the equilibrium dissociation constant (Kd) stood at 260 µM. With `O=C(O)CNC(=O)C(CS)Cc1ccccc1` (stereo not drawn) [compound 2, thiorphan], the Kd on thermolysin (read-out: Kd) is 4 µM.
